From ChEMBL document CHEMBL1135773, “Purine and pyrimidine (P2) receptors as drug targets” (J Med Chem, 2002)

Legend:
[1] = target: P2Y purinoceptor 12 (Homo sapiens, UniProt Q9H244); experiment: The compound was evaluated for antagonist activity against phospholipase C coupled human P2Y purinoceptor 12 (P2Y12); format: functional
[2] = target: T1, P2Y purinoceptor 11 (Homo sapiens, UniProt Q96G91); experiment: Agonist activity against phospholipase C coupled human P2Y purinoceptor 11 (P2Y11); format: functional
T1 sequence (Q96G91 whole entry): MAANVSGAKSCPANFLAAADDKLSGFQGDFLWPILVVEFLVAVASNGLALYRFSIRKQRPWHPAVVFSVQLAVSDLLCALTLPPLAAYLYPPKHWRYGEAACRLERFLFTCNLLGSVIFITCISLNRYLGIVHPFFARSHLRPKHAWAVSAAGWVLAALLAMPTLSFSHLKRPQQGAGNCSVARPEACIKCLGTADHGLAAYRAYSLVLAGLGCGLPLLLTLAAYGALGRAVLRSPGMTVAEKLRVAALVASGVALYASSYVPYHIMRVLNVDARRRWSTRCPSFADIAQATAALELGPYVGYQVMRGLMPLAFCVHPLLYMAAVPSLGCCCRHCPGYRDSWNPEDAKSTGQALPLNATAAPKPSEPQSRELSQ

[3] = target: T2, P2X purinoceptor 1 (Rattus norvegicus, UniProt P47824); experiment: The compound was evaluated for antagonist activity against P2X purinoceptor 1 (P2X1) like receptor from rat vas deferens; format: functional
T2 sequence (P47824 whole entry): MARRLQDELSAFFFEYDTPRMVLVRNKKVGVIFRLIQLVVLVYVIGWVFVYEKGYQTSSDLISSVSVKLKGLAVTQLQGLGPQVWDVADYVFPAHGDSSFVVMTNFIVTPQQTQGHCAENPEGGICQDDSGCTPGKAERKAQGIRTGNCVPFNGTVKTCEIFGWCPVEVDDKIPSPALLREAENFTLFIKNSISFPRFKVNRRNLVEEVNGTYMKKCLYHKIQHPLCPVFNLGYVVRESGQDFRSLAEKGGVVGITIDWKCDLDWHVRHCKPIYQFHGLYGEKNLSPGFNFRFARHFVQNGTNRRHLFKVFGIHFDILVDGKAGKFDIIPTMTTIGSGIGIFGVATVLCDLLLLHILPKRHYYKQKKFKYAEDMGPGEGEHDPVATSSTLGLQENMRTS

[4] = target: P2Y purinoceptor 1 (Cavia porcellus); experiment: The compound was evaluated for antagonistic activity at P2Y purinoceptor 1 (P2Y1) from guinea pig taenia coli
[5] = target: P2X purinoceptor 7 (Rattus norvegicus, UniProt Q64663); experiment: The compound was evaluated for antagonist activity against P2X purinoceptor 7 (P2X7) in rat parotid acinar cells; format: functional, cell-based
[6] = target: T3, P2X purinoceptor 4 (Rattus norvegicus, UniProt P51577); experiment: The compound was evaluated for antagonist activity against recombinant rat P2X purinoceptor 4 (P2X4) at 10 uM; format: functional
T3 sequence (P51577 whole entry): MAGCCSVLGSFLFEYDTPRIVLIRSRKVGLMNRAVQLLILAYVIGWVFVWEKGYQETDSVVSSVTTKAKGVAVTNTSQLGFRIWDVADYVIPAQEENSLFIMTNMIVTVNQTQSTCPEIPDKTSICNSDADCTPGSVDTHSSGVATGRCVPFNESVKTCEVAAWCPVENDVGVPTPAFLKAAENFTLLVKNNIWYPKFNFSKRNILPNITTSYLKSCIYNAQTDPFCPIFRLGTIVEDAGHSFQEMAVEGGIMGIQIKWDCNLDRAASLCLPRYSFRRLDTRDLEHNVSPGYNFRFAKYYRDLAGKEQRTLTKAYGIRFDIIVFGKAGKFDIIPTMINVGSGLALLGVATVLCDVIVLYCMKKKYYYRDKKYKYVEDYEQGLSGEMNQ

[7] = target: T2, P2X purinoceptor 1; experiment: The compound was evaluated for antagonist activity against recombinant rat P2X purinoceptor 1 (P2X1); format: functional
[8] = target: T4, P2X purinoceptor 4 (Homo sapiens, UniProt Q99571); experiment: The compound was evaluated for antagonist activity against recombinant human P2X purinoceptor 4 (P2X4); format: functional
T4 sequence (Q99571 whole entry): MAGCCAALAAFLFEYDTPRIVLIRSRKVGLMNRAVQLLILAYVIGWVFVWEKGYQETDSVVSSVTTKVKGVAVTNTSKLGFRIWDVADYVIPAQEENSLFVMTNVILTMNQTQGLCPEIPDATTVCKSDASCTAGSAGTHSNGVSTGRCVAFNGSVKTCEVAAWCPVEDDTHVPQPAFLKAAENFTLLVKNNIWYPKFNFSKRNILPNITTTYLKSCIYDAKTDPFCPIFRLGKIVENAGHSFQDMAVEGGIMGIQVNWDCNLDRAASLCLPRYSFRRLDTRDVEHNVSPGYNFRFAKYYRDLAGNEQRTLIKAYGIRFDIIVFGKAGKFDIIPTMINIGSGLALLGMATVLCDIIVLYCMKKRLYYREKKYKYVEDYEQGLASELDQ

[9] = target: T5, P2X purinoceptor 2 (Rattus norvegicus, UniProt P49653); experiment: The compound was evaluated for antagonist activity against recombinant rat P2X purinoceptor 2 (P2X2) at 10 uM; format: functional
T5 sequence (P49653 whole entry): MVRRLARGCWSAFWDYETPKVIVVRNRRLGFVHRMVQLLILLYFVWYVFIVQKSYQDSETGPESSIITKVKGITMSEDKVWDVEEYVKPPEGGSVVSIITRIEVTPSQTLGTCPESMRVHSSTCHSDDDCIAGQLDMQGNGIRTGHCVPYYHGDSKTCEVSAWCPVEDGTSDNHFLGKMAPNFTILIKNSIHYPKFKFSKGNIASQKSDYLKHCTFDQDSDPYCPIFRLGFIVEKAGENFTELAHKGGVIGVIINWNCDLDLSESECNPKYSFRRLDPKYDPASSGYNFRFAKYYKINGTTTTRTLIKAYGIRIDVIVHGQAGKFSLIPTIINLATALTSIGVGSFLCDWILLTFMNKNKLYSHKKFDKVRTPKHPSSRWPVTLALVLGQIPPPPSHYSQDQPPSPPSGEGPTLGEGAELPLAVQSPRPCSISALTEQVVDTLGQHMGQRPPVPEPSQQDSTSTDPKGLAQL

[10] = target: T6, P2X purinoceptor 1 (Homo sapiens, UniProt P51575); experiment: The compound was evaluated for antagonist activity against recombinant human P2X purinoceptor 1 (P2X1 ); format: functional
T6 sequence (P51575 whole entry): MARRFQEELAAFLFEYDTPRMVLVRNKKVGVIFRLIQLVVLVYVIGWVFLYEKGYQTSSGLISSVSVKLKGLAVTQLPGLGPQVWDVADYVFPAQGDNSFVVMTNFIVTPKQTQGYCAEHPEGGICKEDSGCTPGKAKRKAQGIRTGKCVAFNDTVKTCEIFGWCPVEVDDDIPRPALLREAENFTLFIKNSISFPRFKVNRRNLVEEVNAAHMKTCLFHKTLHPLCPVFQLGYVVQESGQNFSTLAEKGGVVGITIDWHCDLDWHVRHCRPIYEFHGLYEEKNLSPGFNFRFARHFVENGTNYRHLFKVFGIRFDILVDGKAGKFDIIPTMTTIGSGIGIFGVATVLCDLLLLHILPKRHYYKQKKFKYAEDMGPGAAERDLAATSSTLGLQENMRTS

[11] = target: T7, P2X purinoceptor 3 (Homo sapiens, UniProt P56373); experiment: The compound was evaluated for antagonist activity against recombinant human P2X purinoceptor 3 (P2X3 ); format: functional
T7 sequence (P56373 whole entry): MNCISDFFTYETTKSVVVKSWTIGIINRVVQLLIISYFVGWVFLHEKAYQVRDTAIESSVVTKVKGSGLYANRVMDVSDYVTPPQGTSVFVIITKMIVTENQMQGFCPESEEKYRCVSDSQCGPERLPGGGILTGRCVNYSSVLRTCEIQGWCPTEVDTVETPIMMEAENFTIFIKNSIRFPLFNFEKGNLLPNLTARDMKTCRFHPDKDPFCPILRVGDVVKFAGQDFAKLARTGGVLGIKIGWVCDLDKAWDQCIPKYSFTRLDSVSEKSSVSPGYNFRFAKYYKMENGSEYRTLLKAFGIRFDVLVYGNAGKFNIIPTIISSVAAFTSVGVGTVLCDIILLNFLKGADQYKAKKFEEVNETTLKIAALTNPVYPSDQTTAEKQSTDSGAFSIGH

Chain of P2Y purinoceptor 12 (Q9H244 whole entry): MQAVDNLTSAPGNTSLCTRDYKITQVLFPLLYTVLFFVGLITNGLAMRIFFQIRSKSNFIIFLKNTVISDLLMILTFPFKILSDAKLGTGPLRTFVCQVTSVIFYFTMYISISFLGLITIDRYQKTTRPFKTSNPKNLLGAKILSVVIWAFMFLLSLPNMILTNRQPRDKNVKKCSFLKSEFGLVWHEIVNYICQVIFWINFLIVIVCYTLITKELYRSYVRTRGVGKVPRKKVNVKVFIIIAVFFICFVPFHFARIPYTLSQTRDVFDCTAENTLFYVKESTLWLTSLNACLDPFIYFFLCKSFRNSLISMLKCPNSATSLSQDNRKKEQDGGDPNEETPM
Chain of P2X purinoceptor 7 (Q64663 whole entry): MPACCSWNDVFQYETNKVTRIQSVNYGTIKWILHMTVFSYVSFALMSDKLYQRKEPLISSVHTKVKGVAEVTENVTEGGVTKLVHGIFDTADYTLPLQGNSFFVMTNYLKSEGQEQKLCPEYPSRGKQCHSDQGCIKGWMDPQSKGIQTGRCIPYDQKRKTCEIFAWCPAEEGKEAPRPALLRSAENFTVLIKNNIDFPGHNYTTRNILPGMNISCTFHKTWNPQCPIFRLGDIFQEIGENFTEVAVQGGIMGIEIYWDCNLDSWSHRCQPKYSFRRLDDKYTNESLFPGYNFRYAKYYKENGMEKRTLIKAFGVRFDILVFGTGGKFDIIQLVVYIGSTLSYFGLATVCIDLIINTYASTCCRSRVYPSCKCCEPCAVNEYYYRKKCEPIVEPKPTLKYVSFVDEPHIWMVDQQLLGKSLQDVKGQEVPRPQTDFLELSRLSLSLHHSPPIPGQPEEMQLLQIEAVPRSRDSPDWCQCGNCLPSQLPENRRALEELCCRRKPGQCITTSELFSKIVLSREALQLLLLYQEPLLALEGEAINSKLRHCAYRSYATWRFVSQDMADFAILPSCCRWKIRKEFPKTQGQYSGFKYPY

CCCSc1nc(N)c2ncn([C@@H]3O[C@H](COP(=O)(O)OP(=O)(O)C(Cl)(Cl)P(=O)(O)O)[C@@H](O)[C@H]3O)c2n1
EC50 [1]: 0.0013 µM | EC50 [2]: 1.5 µM

Nc1c(S(=O)(=O)O)cc(Nc2ccc(Nc3nc(Cl)nc(Cl)n3)cc2S(=O)(=O)O)c2c1C(=O)c1ccccc1C2=O
IC50 [3]: 1.6 µM | IC50 [4]: < 1 µM

O=S(=O)(O)c1cc(N=C=S)ccc1/C=C/c1ccc(N=C=S)cc1S(=O)(=O)O
IC50 [5]: 35 µM

Cc1ncc(COP(=O)(O)O)c(C=O)c1O [PYRIDOXAL PHOSPHATE ANHYDROUS]
EC50 [6]: 219 µM | EC50 [7]: 3 µM

O=C(Nc1cccc(C(=O)Nc2ccc(S(=O)(=O)O)c3cc(S(=O)(=O)O)cc(S(=O)(=O)O)c23)c1)Nc1cccc(C(=O)Nc2ccc(S(=O)(=O)O)c3cc(S(=O)(=O)O)cc(S(=O)(=O)O)c23)c1
IC50 [8]: > 100 µM | IC50 [9]: > 50 µM | IC50 [10]: 0.21 µM | IC50 [11]: 28.5 µM
